Assay results as given in patent US20240247024A1, “INHIBITORS OF NICOTINAMIDE N-METHYL TRANSFERASE (NNMT)” (UNIVERSITEIT LEIDEN, priority 2021, published 2024).

Tests used:
[1] = molecular target: T1, NNMT (Homo sapiens, UniProt P40261); parameters: The enzymatic activity assays were performed using NNMT at a final concentration of 100 nM diluted in assay buffer; conditions: background section, cited from earlier work; for IC50: known NNMT inhibitors, read-out: IC50 against NNMT
T1 sequence (P40261 1-264): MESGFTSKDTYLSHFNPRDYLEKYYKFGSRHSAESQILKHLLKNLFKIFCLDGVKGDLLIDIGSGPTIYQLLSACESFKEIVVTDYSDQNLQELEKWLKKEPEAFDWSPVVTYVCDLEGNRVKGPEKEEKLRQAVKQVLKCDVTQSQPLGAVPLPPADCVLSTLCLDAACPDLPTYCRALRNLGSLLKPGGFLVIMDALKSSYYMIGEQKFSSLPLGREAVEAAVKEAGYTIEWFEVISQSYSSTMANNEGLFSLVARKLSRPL

[2] = system: aged mouse model; conditions: cited from earlier work
[3] = system: diet-induced obese (DIO) mice; conditions: cited from earlier work
[4] = system: HSC-2 oral cancer cells; conditions: cited from earlier work
[5] = system: HSC-2 human oral cancer cell line; assay: MTT cell proliferation assay, HSC-2; assay type: cell-based; conditions: for % of DMSO control at 100 μM, HSC-2, 24 h: 24 h incubation; for % of DMSO control at 100 μM, HSC-2, 48 h: 48 h incubation; for % of DMSO control at 100 μM, HSC-2, 72 h: 72 h incubation
Method: (§1) UROTsa immortalized human urothelium cell line, HSC-2 human oral cancer cell line, T24 human bladder cancer cell line and A549 human lung cancer line were purchased from the American Type Culture Collection (ATCC, Rockville, MD, USA), and cultured in DMEM/F12 medium, supplemented with 10% fetal bovine serum and 50 μg/ml gentamicin, at 37° C. in a humidified 5% CO2 incubator. For each compound tested, powder was dissolved in DMSO at 100 mM concentration. This stock solution was then diluted in culture medium to final concentration values ranging between 1 μM and 100 μM. For each sample, DMSO was kept constant at 0.1% final concentration. The day before starting treatment, cells were seeded in 96-well plates, at a density of 2000 cells/well. Cells were allowed to attach overnight and then incubated with compounds at different final concentrations, or with DMSO only, for 24, 48 and 72 hours. All experiments were performed in triplicate.
(§2) Cell proliferation was determined using a colorimetric assay with 3-(4,5-dimethylthiazol-2-yl)-2,5-diphenyl tetrazolium bromide (MTT). The MTT assay measures the conversion of MTT to insoluble formazan by dehydrogenase enzymes of the intact mitochondria of living cells. Cell proliferation was evaluated by measuring the conversion of the tetrazolium salt MTT to formazan crystals upon treatment with compounds or DMSO only for 24, 48 and 72 hours. Briefly, cells were incubated for 2 hours at 37° C. with 100 μl fresh culture medium containing 5 μl of MTT reagent (5 mg/ml in PBS). The medium was removed and 200 μl isopropanol were added. The amount of formazan crystals formed correlated directly with the number of viable cells. The reaction product was quantified by measuring the absorbance at 540 nm using an ELISA plate reader. Experiments were repeated three times. Results were expressed as percentage of the control (control equals 100% and corresponds to the absorbance value of each sample at time zero) and presented as mean values±standard deviation of three independent experiments performed in triplicate.
(§3) Data were analysed using GraphPad Prism software for Windows (GraphPad Software, San Diego, CA). Significant differences between groups were determined using the one-way analysis of variance (ANOVA). A p value <0.05 was considered as statistically significant.

[6] = system: T24 human bladder cancer cell line; assay: MTT cell proliferation assay, T24; assay type: cell-based; conditions: for % of DMSO control at 100 μM, T24, 24 h: 24 h incubation; for % of DMSO control at 100 μM, T24, 48 h: 48 h incubation; for % of DMSO control at 100 μM, T24, 72 h: 72 h incubation
Method: as §1, §2, §3

[7] = system: A549 human lung cancer line; assay: MTT cell proliferation assay, A549; assay type: cell-based; conditions: for % of DMSO control at 100 μM, A549, 24 h: 24 h incubation; for % of DMSO control at 100 μM, A549, 48 h: 48 h incubation; for % of DMSO control at 100 μM, A549, 72 h: 72 h incubation
Method: as §1, §2, §3

[8] = system: high-fat DIO mice; conditions: cited from earlier work
[9] = cited from earlier work
[10] = system: U2OS cells; conditions: cited from earlier work
[11] = rapidly degraded by SAHH to adenosine and homocysteine; cited from earlier work
[12] = cited from earlier work; remark: listed apart in the source
[13] = cited from earlier work; remark: listed apart in the source

SMILES | IC50 [1] | % of DMSO control at 100 μM, HSC-2, 24 h [5] | % of DMSO control at 100 μM, HSC-2, 48 h [5] | % of DMSO control at 100 μM, HSC-2, 72 h [5] | % of DMSO control at 100 μM, T24, 24 h [6] | % of DMSO control at 100 μM, T24, 48 h [6] | % of DMSO control at 100 μM, T24, 72 h [6] | % of DMSO control at 100 μM, A549, 24 h [7] | % of DMSO control at 100 μM, A549, 48 h [7] | % of DMSO control at 100 μM, A549, 72 h [7] | further results
Cc1cccc2ccc[n+](C)c12 [8-methyl-1-MQ] | 1800 nM | – | – | – | – | – | – | – | – | – | –
C[n+]1cccc2ccccc21 [Compound 1-MQ] | 12100 nM | – | – | – | – | – | – | – | – | – | –
C[n+]1cccc2c(N)cccc21 [Compound 5-amino-1-MQ, 5-amino-1-MQ] | 1200 nM | – | – | – | – | – | – | – | – | – | muscle regeneration [2]: accelerate muscle regeneration; adipocyte size [3]: decreased; body weight and white adipose mass [3]: significantly reduced; plasma total cholesterol levels [3]: lowered
Nc1ncnc2c1ncn2[C@@H]1O[C@H](CN(CC[C@H](N)C(=O)O)Cc2ccc3ccccc3c2)[C@@H](O)[C@H]1O [GYZ191] | – | – | – | – | – | – | – | – | – | – | effect on cell viability [4]: significant inhibitory effect
CC(C)OC(=O)[C@@H](N)CCN(C/C=C/c1ccc(C#N)cc1)C[C@H]1O[C@@H](n2cnc3c(N)ncnc32)[C@H](O)[C@@H]1O [GYZ-553] | – | 100 % of DMSO control | 75 % of DMSO control | 56 % of DMSO control | 100 % of DMSO control | 71 % of DMSO control | 100 % of DMSO control | 100 % of DMSO control | 100 % of DMSO control | 100 % of DMSO control | –
COC(=O)[C@H](CCN(C/C=C/c1ccc(C#N)cc1)C[C@H]1O[C@@H](n2cnc3c(N)ncnc32)[C@H](O)[C@@H]1O)NC(=O)CC(C)(C)c1c(C)cc(C)cc1OC(C)=O [GYZ-573] | – | 83 % of DMSO control | 69 % of DMSO control | 39 % of DMSO control | 100 % of DMSO control | 79 % of DMSO control | 62 % of DMSO control | 100 % of DMSO control | 100 % of DMSO control | 100 % of DMSO control | –
CCCOC(=O)[C@@H](N)CCN(C/C=C/c1ccc(C#N)cc1)C[C@H]1O[C@@H](n2cnc3c(N)ncnc32)[C@H](O)[C@@H]1O [GYZ-579] | – | 100 % of DMSO control | 57 % of DMSO control | 63 % of DMSO control | 82 % of DMSO control | 71 % of DMSO control | 100 % of DMSO control | 100 % of DMSO control | 100 % of DMSO control | 100 % of DMSO control | –
CCCOC(=O)[C@H](CCN(C/C=C/c1ccc(C#N)cc1)C[C@H]1O[C@@H](n2cnc3c(N)ncnc32)[C@H](O)[C@@H]1O)NC(=O)CC(C)(C)c1c(C)cc(C)cc1OC(C)=O [GYZ-580] | – | 59 % of DMSO control | 41 % of DMSO control | 16 % of DMSO control | 72 % of DMSO control | 36 % of DMSO control | 15 % of DMSO control | 83 % of DMSO control | 45 % of DMSO control | 25 % of DMSO control | –
COc1ccc(C(N)=O)cn1 [JBSNF-000088] | 2400 nM | – | – | – | – | – | – | – | – | – | body weight [8]: reduce; glucose tolerance [8]: normalize; insulin sensitivity [8]: improve; plasma levels of MNA [8]: reduce
NC(=O)c1cccc(C#CCN(CC[C@H](N)C(=O)O)C[C@H]2O[C@@H](n3cnc4c(N)ncnc43)[C@H](O)[C@@H]2O)c1 [LL320] | – | – | – | – | – | – | – | – | – | – | cell permeability [9]: poor cell permeability
CC(=O)Oc1cc(C)cc(C)c1C(C)(C)CC(=O)N[C@@H](CCN(C/C=C/c1ccc(C#N)cc1)C[C@H]1O[C@@H](n2cnc3c(N)ncnc32)[C@H](O)[C@@H]1O)C(=O)O [MH128] | – | 100 % of DMSO control | 100 % of DMSO control | 65 % of DMSO control | 100 % of DMSO control | 83 % of DMSO control | 84 % of DMSO control | 100 % of DMSO control | 100 % of DMSO control | 100 % of DMSO control | –
NC(=O)c1cccc(CCN(CCC[C@H](N)C(=O)O)C[C@H]2O[C@@H](n3cnc4c(N)ncnc43)[C@H](O)[C@@H]2O)c1 [MS2734] | 14000 nM | – | – | – | – | – | – | – | – | – | –
NC(=O)c1cccc(CCN(CC[C@H](N)C(=O)O)C[C@H]2O[C@@H](n3cnc4c(N)ncnc43)[C@H](O)[C@@H]2O)c1 [MS2756] | 160000 nM | – | – | – | – | – | – | – | – | – | –
CCOC(=O)[C@H](CCN(C/C=C/c1ccc(C#N)cc1)C[C@H]1O[C@@H](n2cnc3c(N)ncnc32)[C@H](O)[C@@H]1O)NC(=O)CC(C)(C)c1c(C)cc(C)cc1OC(C)=O [NB60] | – | 79 % of DMSO control | 44 % of DMSO control | 26 % of DMSO control | 100 % of DMSO control | 50 % of DMSO control | 29 % of DMSO control | 100 % of DMSO control | 100 % of DMSO control | 76 % of DMSO control | –
NC(=O)c1cccc(C#C[C@@H](CC[C@H](N)C(=O)O)C[C@H]2O[C@@H](n3cnc4c(N)ncnc43)[C@H](O)[C@@H]2O)c1 [NS1] | – | – | – | – | – | – | – | – | – | – | MNA levels in cells [10]: only moderately decreased; Ki ([1]; known bisubstrate inhibitors, read-out: Ki against NNMT): 0.5 nM
Nc1ncnc2c1ncn2[C@@H]1O[C@H](CSCC[C@H](N)C(=O)O)[C@@H](O)[C@H]1O [SAH, S-adenosyl-1-homocysteine] | – | – | – | – | – | – | – | – | – | – | activity in cellular assays [11]: loses its activity
Nc1ncnc2c1ncn2[C@@H]1O[C@H](C[C@@H](N)CC[C@H](N)C(=O)O)[C@@H](O)[C@H]1O [Sinefungin, sinefungin] | – | – | – | – | – | – | – | – | – | – | cell membrane permeability [12]: low cell membrane permeability; toxicity in animal models [13]: severe toxicity
